Paper PMC7855930, “Nontoxic Cobalt(III) Schiff Base Complexes with Broad‐Spectrum Antifungal Activity” (Chemistry (Weinheim an Der Bergstrasse, Germany), 2020)
In brackets after ≈: the same amount, converted by molar mass. Read-outs that look alike come from different tables or passages of the source. Starred links: 1 amine or outer side, 2 acyl side, 3 side chain; linkers in the order of their positions; H or OH if unused. Positions of bridges follow the written chain, without caps; N, C: chain ends. Non-standard residues stand in square brackets, D forms with d. Residues, ends and D or L forms follow the SMILES beside them. *: point of attachment. hTyr(3S-OH,4S-OH,3'-OSO3H) = N[C@H](C(=O)O)[C@H](O)[C@@H](O)c1ccc(O)c(OS(=O)(=O)O)c1; Orn(4R-OH,5R-OH) = O=C([C@H](C[C@@H](O)[C@@H](O)N[*:3])N[*:1])[*:2]; Pro(3S-OH,4S-Me) = C[C@H]1CN[C@H](C(=O)O)[C@H]1O; X1 = CCCCCOc1ccc(-c2cc(-c3ccc(C(=O)*)cc3)no2)cc1; Gln(3R-OH) = NC(=O)C[C@@H](O)[C@H](N)C(=O)O; Hyp = O=C(O)[C@@H]1C[C@@H](O)CN1

Legend:
[1] = tested on: C. tropicalis ATCC 750; assay: Antifungal MIC assay (broth microdilution in YNB); type: cell-based, Candida tropicalis; conditions: Candida tropicalis
From the text: (§1) Yeast strains: Candida albicans (ATCC 90028, NCCLS 11), Cryptococcus neoformans (ATCC 208821, H99 type strain), Candida tropicalis (ATCC 750, type strain), Candida glabrata (ATCC 90030, NCCLS 84) and Cryptococcus deuterogattii (ATCC 32609, type strain) were obtained from the American Type Culture Collection (ATCC). Cryptococcus deuterogattii (CBS 7750), Candida auris (CBS 10913) and Candida auris (CBS 12373) were obtained from the CBS‐KNAW culture collection. The strains were maintained on glycerol/YPD (yeast extract‐peptone dextrose) broth (20:80 v/v) at −80 °C.
(§2) Antifungal minimum inhibitory concentration (MIC) assay: The cobalt complexes and antifungal control compounds were serially diluted in 50 μL of Yeast Nitrogen Broth (YNB; BD, Cat No. 233520 supplemented with 2 % glucose and 10 mM ammonium sulfate) two‐fold across the wells of non‐binding surface (NBS) 96‐well plates (Corning; Cat. No. 3641). Plates were set up in quadruplicate for each strain tested, and two biological replicates were conducted on separate assay days.
(§3) Yeast strains were cultured from glycerol onto YPD (Becton Dickinson 242720) agar at 30 °C for 72 h. For each strain, a minimum of five single colonies were taken from the agar plate and dissolved in sterile water and adjusted to form a yeast suspension of 1×10^6 to 5×10^6 CFU mL^−1 (as determined by OD530). The suspension was subsequently diluted into YNB media, and added to each well of the compound containing plates, giving a final cell density of 2.5×10^3 CFU mL^−1 and a total volume of 100 μL. Plates were covered and incubated at 35 °C for 36 h without shaking.
(§4) Growth inhibition of all strains was determined visually where the MIC was recorded as the lowest compound concentration with no visible growth. Fluconazole (Sigma F8929), ketoconazole (Sigma K1003) and micafungin (Sigma SML2288) were used as internal positive inhibitor controls for every strain tested.

[2] = tested on: C. neoformans ATCC 208821; assay: Antifungal MIC assay (broth microdilution in YNB); type: cell-based, Cryptococcus neoformans; conditions: Cryptococcus neoformans
From the text: as §1, §2, §3, §4

[3] = tested on: C. auris CBS 12373; assay: Antifungal MIC assay (broth microdilution in YNB); type: cell-based, Candida auris; conditions: Candidozyma auris
From the text: as §1, §2, §3, §4

[4] = tested on: C. auris CBS 10913; assay: Antifungal MIC assay (broth microdilution in YNB); type: cell-based, Candida auris; conditions: Candidozyma auris
From the text: as §1, §2, §3, §4

[5] = tested on: C. deuterogattii ATCC 32609; assay: Antifungal MIC assay (broth microdilution in YNB); type: cell-based, Cryptococcus deuterogattii; conditions: Cryptococcus deuterogattii
From the text: as §1, §2, §3, §4

[6] = tested on: C. deuterogattii CBS 7750; assay: Antifungal MIC assay (broth microdilution in YNB); type: cell-based, Cryptococcus deuterogattii; conditions: Cryptococcus deuterogattii
From the text: as §1, §2, §3, §4

[7] = tested on: C. glabrata ATCC 90030; assay: Antifungal MIC assay (broth microdilution in YNB); type: cell-based, Candida glabrata; conditions: Nakaseomyces glabratus
From the text: as §1, §2, §3, §4

[8] = tested on: C. albicans ATCC 90028; assay: Antifungal MIC assay (broth microdilution in YNB); type: cell-based, Candida albicans; conditions: Candida albicans
From the text: as §1, §2, §3, §4

[9] = tested on: Staphylococcus aureus ATCC 43300 (MRSA); assay: CO-ADD bacterial broth microdilution MIC assay; type: cell-based; conditions: Staphylococcus aureus, 18 h, read-out: MIC Sa (Staphylococcus aureus ATCC 43300, MRSA)
Experimental: (§5) CO-ADD High Throughput Screening
(§6) Bacterial broth microdilution minimum inhibitory concentration (MIC) assay Bacterial strains were cultured in Cation-adjusted Mueller Hinton broth (CAMHB; Bacto Laboratories 212322) at 37 °C overnight. A sample of each culture was then diluted 40-fold in fresh CAMHB and incubated at 37 °C for 1.5-3 h. The resultant mid-log phase cultures were diluted with CAMHB (CFU/mL measured by OD600), then added to each well of the compound-containing plates (384-well non-binding surface (NBS) plates; Corning CLS3640), giving a cell density of 5 × 10^5 CFU/mL and a total volume of 50 µL. Plates were covered and incubated at 37 °C for 18 h without shaking. Inhibition of bacterial growth was determined measuring absorbance at 600 nm (OD600), using media only as negative control and bacteria without inhibitors as positive control. MIC values were determined as the lowest concentration at which the growth was inhibited at ≥ 80%. Colistin sulfate (Sigma C4461) and vancomycin HCl (Sigma 861987) were used as positive inhibitor controls on each plate for Gram-negative and Gram-positive bacteria, respectively.
(§7) Figure S1. 1H NMR (400 MHz) of [Co(ATS)(DMAP)2]NO3 (3) in DMSO-d6.
(§8) (1 picture or pasted object on this page, not shown here)

[10] = tested on: Klebsiella pneumoniae ATCC 700603 (K6; ESBL SHV-18); type: cell-based; conditions: CAMHB, 37 °C, 18 h, ≥ 80% inhibition
Experimental: as §5, §6, §7, §8

[11] = tested on: Pseudomonas aeruginosa ATCC 27853; assay: CO-ADD bacterial broth microdilution MIC assay; type: cell-based; conditions: CAMHB, 37 °C, 18 h, ≥ 80% inhibition
Experimental: as §5, §6, §7, §8

[12] = tested on: Escherichia coli ATCC 25922; assay: CO-ADD bacterial broth microdilution MIC assay; type: cell-based; conditions: CAMHB, 37 °C, 18 h, ≥ 80% inhibition
Experimental: as §5, §6, §7, §8

[13] = tested on: Acinetobacter baumannii ATCC 19606; assay: CO-ADD bacterial broth microdilution MIC assay; type: cell-based; conditions: CAMHB, 37 °C, 18 h, ≥ 80% inhibition
Experimental: as §5, §6, §7, §8

[14] = ATCC750, Table S1, read-out: MIC Candida tropicalis ATCC 750
[15] = ATCC750, range of MICs, n=8, 35 °C, 36 h, visual, read-out: MIC C. tropicalis ATCC 750
[16] = ATCC208821, Table S1, read-out: MIC Cryptococcus neoformans ATCC 208821
[17] = ATCC208821, range of MICs, n=8, 35 °C, 36 h, visual, read-out: MIC C. neoformans ATCC 208821
[18] = CBS12373, Table S1, read-out: MIC Candida auris CBS 12373
[19] = CBS12373, range of MICs, n=8, 35 °C, 36 h, visual, read-out: MIC C. auris CBS 12373
[20] = CBS10913, Table S1, read-out: MIC Candida auris CBS 10913
[21] = CBS10913, range of MICs, n=8, 35 °C, 36 h, visual, read-out: MIC C. auris CBS 10913
[22] = ATCC32609, Table S1, read-out: MIC Cryptococcus deuterogattii ATCC 32609
[23] = ATCC32609, range of MICs, n=8, 35 °C, 36 h, visual, read-out: MIC C. deuterogattii ATCC 32609
[24] = CBS7750, Table S1, read-out: MIC Cryptococcus deuterogattii CBS 7750
[25] = CBS7750, range of MICs, n=8, 35 °C, 36 h, visual, read-out: MIC C. deuterogattii CBS 7750
[26] = ATCC90030, Table S1, read-out: MIC Candida glabrata ATCC 90030
[27] = ATCC90030, range of MICs, n=8, 35 °C, 36 h, visual, read-out: MIC C. glabrata ATCC 90030
[28] = ATCC90028, Table S1, read-out: MIC Candida albicans ATCC 90028
[29] = ATCC90028, range of MICs, n=8, 35 °C, 36 h, visual, read-out: MIC C. albicans ATCC 90028

| MIC [1, 14] | MIC [1, 15] | MIC [2, 16] | MIC [2, 17] | MIC [3, 18] | MIC [3, 19] | MIC [4, 20] | MIC [4, 21] | MIC [5, 22] | MIC [5, 23] | MIC [6, 24] | MIC [6, 25] | MIC [7, 26] | MIC [7, 27] | MIC [8, 28] | MIC [8, 29] | Compound | further results |
| --- | --- | --- | --- | --- | --- | --- | --- | --- | --- | --- | --- | --- | --- | --- | --- | --- | --- |
| > 64 µg/mL | > 209 µM | 16 µg/mL | 52.2 µM | > 64 µg/mL | > 209 µM | 16 µg/mL | 52.2 µM | 8 to 16 µg/mL | 26.1 to 52.2 µM | 8 µg/mL | 26.1 µM | > 64 µg/mL | > 209 µM | 2 µg/mL | 6.53 µM | OC(Cn1cncn1)(Cn1cncn1)c1ccc(F)cc1F [FCZ, Fluconazole, reference compound] |  |
| 16 µg/mL | 30.1 µM | 1 to 2 µg/mL | 1.88 to 3.76 µM | 2 µg/mL | 3.76 µM | 0.5 µg/mL | ≤ 0.94 µM | 1 µg/mL | 1.88 µM | 0.5 to 1 µg/mL | 0.94 to 1.88 µM | 32 µg/mL | 60.2 µM | 0.5 µg/mL | ≤ 0.94 µM | CC(=O)N1CCN(c2ccc(OCC3COC(Cn4ccnc4)(c4ccc(Cl)cc4Cl)O3)cc2)CC1 (stereo not shown) [KCZ, Ketoconazole, reference compound] |  |
|  |  |  |  |  |  |  |  |  |  |  |  |  |  |  |  | CCCCCOc1ccc(-c2cc(-c3ccc(C(=O)N[C@H]4C[C@@H](O)[C@@H](O)NC(=O)[C@@H]5[C@@H](O)[C@@H](C)CN5C(=O)[C@H]([C@H](O)CC(N)=O)NC(=O)[C@H]([C@H](O)[C@@H](O)c5ccc(O)c(OS(=O)(=O)O)c5)NC(=O)[C@@H]5C[C@@H](O)CN5C(=O)[C@H]([C@@H](C)O)NC4=O)cc3)no2)cc1 [MFG, Micafungin, reference compound] (X1-[Orn(4R-OH,5R-OH)]T[Hyp][hTyr(3S-OH,4S-OH,3'-OSO3H)][Gln(3R-OH)][Pro(3S-OH,4S-Me)]; lactam 1-C) | MIC ([1]; ATCC750, 36 h, read-out: MIC C. tropicalis ATCC 750): ≤ 0.39 µM; MIC ([1]; ATCC750, read-out: MIC Candida tropicalis ATCC 750): 0.5 µg/mL; MIC ([2]; ATCC208821, 36 h, read-out: MIC C. neoformans ATCC 208821): > 49.5 µM; MIC ([2]; ATCC208821, read-out: MIC Cryptococcus neoformans ATCC 208821): > 64 µg/mL; MIC ([3]; CBS12373, 36 h, read-out: MIC C. auris CBS 12373): ≤ 0.39 µM; MIC ([3]; CBS12373, read-out: MIC Candida auris CBS 12373): 0.5 µg/mL; MIC ([4]; CBS10913, 36 h, read-out: MIC C. auris CBS 10913): ≤ 0.39 µM; MIC ([5]; ATCC32609, 36 h, read-out: MIC C. deuterogattii ATCC 32609): > 49.5 µM; MIC ([5]; ATCC32609, read-out: MIC Cryptococcus deuterogattii ATCC 32609): > 64 µg/mL; MIC ([6]; CBS7750, 36 h, read-out: MIC C. deuterogattii CBS 7750): > 49.5 µM; MIC ([6]; CBS7750, read-out: MIC Cryptococcus deuterogattii CBS 7750): > 64 µg/mL; MIC ([7]; ATCC90030, 36 h, read-out: MIC C. glabrata ATCC 90030): ≤ 0.39 µM; MIC ([7]; ATCC90030, read-out: MIC Candida glabrata ATCC 90030): 0.5 µg/mL; MIC ([8]; ATCC90028, 36 h, read-out: MIC C. albicans ATCC 90028): ≤ 0.39 µM; MIC ([8]; ATCC90028, read-out: MIC Candida albicans ATCC 90028): 0.5 µg/mL |
|  |  |  |  |  |  |  |  |  |  |  |  |  |  |  |  | CN[C@H](CC(C)C)C(=O)N[C@H]1C(=O)N[C@@H](CC(N)=O)C(=O)N[C@H]2C(=O)N[C@H]3C(=O)N[C@H](C(=O)N[C@H](C(=O)O)c4cc(O)cc(O)c4-c4cc3ccc4O)[C@H](O)c3ccc(c(Cl)c3)Oc3cc2cc(c3O[C@@H]2O[C@H](CO)[C@@H](O)[C@H](O)[C@H]2O[C@H]2C[C@](C)(N)[C@H](O)[C@H](C)O2)Oc2ccc(cc2Cl)[C@H]1O [Van, Vancomycin, reference compound] | MIC [9]: 1 µg/mL (≈ 0.69 µM) |
|  |  |  |  |  |  |  |  |  |  |  |  |  |  |  |  | Colistin [reference compound] | MIC Kp (Klebsiella pneumoniae ATCC 700603) [10]: 0.25 µg/mL; MIC Pa (Pseudomonas aeruginosa ATCC 27853) [11]: 0.25 µg/mL; MIC Ec (Escherichia coli ATCC 25922) [12]: 0.125 µg/mL; MIC Ab (Acinetobacter baumannii ATCC 19606) [13]: 0.25 µg/mL |
